# Test results taken from PubChem BioAssay (NCI).
# Where “and” joins values, the source holds several entries; their conditions need not be identical. Equal values may be shown once.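 48-hour exposure; five concentrations; linearly interpolated endpoints. GI50 is the concentration that inhibits growth by half. TGI: concentration producing complete growth inhibition.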
# Columns and labels:
# Experiment in all cases: NCI anticancer screen, dose series, 48 h
# [1] = tested on: UACC-257 melanoma
# [2] = tested on: KM12 colon
# [3] = tested on: UACC-62 melanoma
# [4] = tested on: SF-539 CNS
# [5] = tested on: A498 renal
# [6] = tested on: HL-60(TB) leukemia
# [7] = tested on: HCT-116 colon
# [8] = tested on: SF-295 CNS
Structure (SMILES),TGI [1],TGI [2] [µM],TGI [3] [µM],TGI [4],TGI [5],TGI [6] [µM],TGI [7] [µM],TGI [8] [µM],GI50 [1],GI50 [2],GI50 [3],GI50 [4],GI50 [5],GI50 [6],GI50 [7],GI50 [8]
O=C(c1ccccc1)C1N=NCC1c1ccc([N+](=O)[O-])cc1 (centres undefined),88.4 µM,> 100,> 100,> 100 µM,> 100 µM,67.3,> 100,> 100,–,–,–,–,–,–,–,–
COc1cc(Cl)cc(-c2nn(C(=O)NCCN3CCOCC3)cc2-c2ccncc2)c1,> 100 µM,> 100,20.4,25.9 µM,35.2 µM,95.1,51.2,13.5,18.4 µM,3.79 µM,3.72 µM,4.57 µM,3.1 µM,3.22 µM,4.13 µM,2.75 µM
CCN(Cc1ccc(F)c(F)c1)c1ccc(CO)c(Cl)c1,0.432 µM,28.4,0.919,27.3 µM,0.153 µM,29.3,11.4,12.1,0.138 µM,13.9 µM,0.12 µM,13.7 µM,0.0353 µM,5.42 µM,0.0911 µM,0.51 µM
COc1ccc(C(=O)/C=C/c2ccc(/C=C/c3cc(OC)c(OC)c(OC)c3)cc2)cc1,> 100 µM,83.9,> 100,78.3 µM,> 100 µM,> 100,> 100,> 100,9 µM,3.75 µM,7.13 µM,12.2 µM,18.6 µM,4.49 µM,2.62 µM,9.01 µM
CCCCCn1c(=N)n(CC(O)COc2cccc(C)c2)c2ccccc21 (centres undefined),12 µM,15.1,18.5,24.7 µM,13 µM,4.9,17.7,22.8,3.36 µM,4.02 µM,4.85 µM,11.7 µM,1.49 µM,2.15 µM,3.03 µM,5.62 µM
Cc1c(C(=O)/C=C/c2csc3ccccc23)[n+](=O)c2ccccc2n1[O-],3.73 µM,2.9,3.65,3.12 µM,13.8 µM,5.19,2.65,4.83,1.81 µM,1.56 µM,1.77 µM,1.59 µM,3.38 µM,1.78 µM,1.37 µM,1.94 µM
CCCC[C@H](NC(=O)[C@H]1CCCN1C)C(=O)N(C)[C@H](C[C@@H](OC(C)=O)c1nc(C(=O)N[C@@H](Cc2ccccc2)C[C@H](C)C(=O)OCC)cs1)C(C)C,> 33.3 µM,18,> 33.3,0.241 µM,0.0841 µM,0.0253,> 33.3,4.13,7.81 µM,0.0114 µM,0.00489 µM,0.022 µM,0.00714 µM,0.0058 µM,0.0125 µM,0.0139 µM
CN1CCN(CCc2cccc(C(=O)c3cnn(-c4ccc(F)cc4)c3N)c2)CC1,> 25 µM,> 25,> 25,> 25 µM,> 25 µM,> 25,> 25,> 25,> 25 µM,> 25 µM,> 25 µM,> 25 µM,> 25 µM,> 25 µM,> 25 µM,> 25 µM
C=C1C(=O)O[C@H]2[C@H]1CC/C(COC(=O)NCc1ccccc1OC)=C\CC[C@@]1(C)O[C@@H]21,3.51 µM,13.6,–,3.04 µM,8.53 µM,5.77,1.86,18.8,1.48 µM,3.53 µM,–,1.53 µM,3.23 µM,1.61 µM,0.548 µM,5.02 µM
O=CNc1c(Cl)cc2c(c1Cl)Cc1cc([N+](=O)[O-])ccc1-2,> 100 µM,11.9,> 100,> 100 µM,48.4 µM,> 100,19.7,14.3,64 µM,2.51 µM,3.98 µM,6.15 µM,4.07 µM,3.21 µM,1.02 µM,3.05 µM
COC(=O)[C@H](Cc1cn(C)cn1)NC(=O)[C@H](Cc1c[nH]c2ccccc12)NC(=O)Nc1cc(C(F)(F)F)cc(C(F)(F)F)c1,> 10 µM,> 10,> 10,> 10 µM,> 10 µM,> 10,> 10,> 10,> 10 µM,> 10 µM,> 10 µM,> 10 µM,> 10 µM,> 10 µM,> 10 µM,> 10 µM
Nc1ccn(Cc2ccc(C34CC5CC(CC(C5)C3)C4)c(O)c2)c(=O)n1,–,> 100,> 100,> 100 µM,> 100 µM,> 100,> 100,> 100,–,> 100 µM,> 100 µM,42 µM,59.4 µM,62.9 µM,> 100 µM,31.5 µM
COc1cc(C2c3cc4c(cc3OC(N3CCCC3)C2C)OCO4)cc(OC)c1OC (centres undefined),49 µM,3.68,20.7,0.732 µM,7.73 µM,–,27.7,2.55,–,–,–,–,–,–,–,–
CC1SC(c2c(Cl)cccc2Cl)N(NC(=O)c2[nH]c3ccc(F)cc3c2-c2ccccc2)C1=O (centres undefined),44 µM,20.9,32.5,11.9 µM,9.46 µM,> 100,3.08,3.71,4.69 µM,3.53 µM,4 µM,3.7 µM,2.33 µM,67.5 µM,1.71 µM,1.9 µM
CC(C)(C)C[C@H]1NC(C(=O)NCC[C@H](O)CO)[C@H](c2cccc(Cl)c2)[C@@]12C(=O)Nc1cc(Cl)c(F)cc12 (some centres undefined),15.9 µM,28.8,15.8,31.8 µM,18.7 µM,40.1,16.3,28.1,1.75 µM,14.7 µM,1.6 µM,15.5 µM,4.41 µM,14.7 µM,3.07 µM,13.4 µM
COC(=O)/C=C/C=C(c1ccccc1)c1ccccc1,> 100 µM,27.4,25.4,43.3 µM,39.6 µM,26.1,18.9,8.12,8.82 µM,3.67 µM,5.43 µM,5.17 µM,10.6 µM,3.26 µM,3.68 µM,2.76 µM

Structure (SMILES),TGI [1],TGI [2] [µM],TGI [3] [µM],TGI [4],TGI [5],TGI [6] [µM],TGI [7] [µM],TGI [8] [µM],GI50 [1],GI50 [2],GI50 [3],GI50 [4],GI50 [5],GI50 [6],GI50 [7],GI50 [8]
CC(C)NC[C@@H](C(=O)N1CCN(c2ncnc3c2[C@H](C)C[C@H]3O)CC1)c1ccc(Cl)cc1,> 10 µM and 49.8 µM,> 91.9,> 100,> 10 µM and 40.1 µM,5.88 µM and 4.3 µM,> 100,> 100,> 75.1,> 10 µM and 10.8 µM,0.891 µM and 1.43 µM,1.9 µM and 6 µM,0.401 µM and 0.396 µM,0.396 µM and 0.24 µM,> 10 µM and 39.4 µM,> 10 µM and 23.8 µM,0.68 µM and 0.47 µM
CCN(CC)c1ccc(C(=C2C=CC(=[N+](CC)Cc3cccc(S(=O)(=O)O)c3)C=C2)c2ccc(N(CC)Cc3cccc(S(=O)(=O)O)c3)cc2)cc1,> 100 µM,28.9,87,23.3 µM,32.4 µM,17.4,19.7,> 47,21 µM,4.36 µM,13 µM,3.57 µM,5.35 µM,4.38 µM,3.18 µM,2.81 µM
COc1ccc(-c2ccc(/C=N/n3c(COc4ccc(Cl)cc4Cl)n[nH]c3=S)o2)c([N+](=O)[O-])c1,–,33,> 100,49.7 µM,41.5 µM,51.2,31.3,36.5,–,15.9 µM,34.7 µM,25.7 µM,16.8 µM,21.5 µM,17.5 µM,18 µM
Cc1ccc2c(ccc3c[n+]4c5ccccc5ccc4n32)c1,3.82 µM,2.09,2.32,–,5.78 µM,10.2,7.51,6.91,1.43 µM,0.34 µM,0.795 µM,–,0.437 µM,2.5 µM,1.85 µM,1.56 µM
Cc1[c-]onc1C.Cc1[c-]onc1C.[Ag].[Ag].[NH-]S(=O)(=O)c1ccc(N=Nc2cc(N=Nc3ccc(S([NH-])(=O)=O)cc3)c3c(NC(=O)C(Cl)Cl)cccc3c2OC(=O)C(Cl)Cl)cc1,–,18.1,14.5,> 50 µM,44.6 µM,26.7,18.2,> 50,–,7.44 µM,7.36 µM,14.2 µM,13 µM,11 µM,5.12 µM,33.9 µM
CC(C)(C)C#CC1=C(Br)C(=O)OC1,4.39 µM,3.6,> 45.5,11.1 µM,15.1 µM,–,–,18.2,0.886 µM,1.32 µM,13.2 µM,2.74 µM,4.04 µM,–,–,6.9 µM
Cc1ccc(/C=C2\CN(C(=O)OC(C)(C)C)C/C(=C\c3ccc(C)cc3)C2=O)cc1,> 100 µM,> 100,> 100,–,> 100 µM,0.473,13.7,> 100,–,0.149 µM,0.0788 µM,–,–,0.0409 µM,0.058 µM,0.0685 µM
COC(=O)[C@@H](C)C[C@H](Cc1ccccc1)NC(=O)c1nc([C@@H](C[C@H](C(C)C)N(C)C(=O)[C@@H](NC(=O)[C@H]2CCCCN2C)C(C)C)OC(C)=O)sc1C,–,> 16.7,> 16.7,0.00822 µM,> 3.99 µM,< 0.00167,> 9.5,> 16.7,–,< 0.00167 µM,< 0.00167 µM,0.00239 µM,< 0.00167 µM,< 0.00167 µM,< 0.00167 µM,< 0.00167 µM
O=C1c2ccccc2-c2c1c1ccccc1c(=O)n2CCCNCCCNCCCn1c2c(c3ccccc3c1=O)C(=O)c1ccccc1-2,2.25 µM,0.219,0.346,–,2.61 µM,–,0.476,1.26,0.811 µM,0.028 µM,0.0434 µM,–,1.25 µM,–,< 0.01 µM,0.0151 µM
Nc1cc2cccc[n+]2c2cc(Cl)ccc12,20.2 µM,53.2,45.9,83.2 µM,–,–,–,–,3.75 µM,7.89 µM,18.7 µM,14.6 µM,–,16.3 µM,30.2 µM,23.1 µM
COC(=O)[C@]12CC[C@@H](C)[C@H](C)[C@@H]1C1=CC[C@@H]3[C@@]4(C)C[C@@H](OC(C)=O)[C@H](O)[C@@](C)(COC(C)=O)[C@@H]4[C@H](O)C[C@@]3(C)[C@]1(C)CC2,5.92 µM,7.9,–,13.3 µM,7.4 µM,5.42,4.11,4.07,2.06 µM,2.65 µM,–,3.47 µM,2.04 µM,2.11 µM,1.95 µM,1.82 µM
CN(C)/C=C/c1nnc([N+](=O)[O-])s1,27.2 µM,29.6,35.4,23.4 µM,67.6 µM,–,26.2,39.4,–,–,–,–,–,–,–,–
CNC(=O)n1ccc2cc(Oc3ccnc(NC(=O)c4ccc(C5CCN(CCO)CC5)cc4)c3)c(OCCOC)cc21,5.73 µM,24.5,17.5,2.56 µM,–,4.58,11.9,21,2.24 µM,10.4 µM,5.23 µM,1.12 µM,–,2.13 µM,2.63 µM,8.54 µM
CC1(C)SC2C(NC(=O)C(N)c3ccccc3)C(=O)N2C1C(=O)O (centres undefined),> 100 µM,> 100,> 100,> 100 µM,–,> 100,> 100,> 100,–,–,–,–,–,–,–,–
O=C(Cn1ccc(=O)[nH]c1=O)Nc1ccc(C(=O)O)c(O)c1,> 100 µM,> 100,> 100,–,> 100 µM,> 100,> 100,> 100,–,–,–,–,–,–,–,–
